Assay results taken from US11214803B2, “Modulators of YAP1 expression” (Ionis Pharmaceuticals, Inc., priority 2019, dated 2022).
Strand notation (5' to 3'): a small letter for the sugar, then the base; units joined by * are phosphorothioate-linked, units joined directly phosphodiester-linked; [ ] holds rarer units or linkages, { } end groups; capitals alone tell only the bases. e = 2'-O-(2-methoxyethyl) (MOE); k = constrained ethyl (cEt); [5mC] = 5-methylcytosine; d = 2'-deoxy (DNA); m = 2'-O-methyl

What follows are substances tested on Yap1 mRNA (assay: Antisense inhibition of human Yap1 in SNU-449 cells by modified oligonucleotides, single dose (Example 5, RTS36584)). Details: Table 39; SNU-449 cells, 10,000 cells per well, free uptake, 2,000 nM oligonucleotide, approx. 48 hours; RTS36584; normalized to RIBOGREEN; Yap1 mRNA relative to untreated control.
Format: cell-based
How it was run: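 Values are Yap1 mRNA as percent of untreated control cells, measured by quantitative real-time RT-PCR using RTS36584 and normalised to total RNA by RIBOGREEN. Cells were SNU-449, dosed by free uptake at 2,000 nM for approximately 48 hours.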

Substance | YAP1 (% UTC)
1198422 (k[5mC]*dT*dT*dA*dT*dA*dT*dG*dG*dT*dT*kT*eT*kG*eT*kG; antisense) [Compound 1198422] | 18
1198434 (kT*dG*dT*dA*dA*dT*dA*dT*dT*dG*d[5mC]*kA*eA*kT*e[5mC]*kT) [Compound 1198434] | 78
1198373 (kA*dA*dA*dT*dT*dG*dT*d[5mC]*dT*d[5mC]*dA*kT*eG*k[5mC]*e[5mC]*kT; antisense) [Compound 1198373] | 40

Same assay, conditions: Table 40 (separate experiment); SNU-449 cells, 10,000 cells per well, free uptake, 2,000 nM oligonucleotide, approx. 48 hours; RTS36584; normalized to RIBOGREEN; Yap1 mRNA relative to untreated control

Substance | YAP1 (% UTC)
1198725 (kT*eA*kG*dA*dG*dT*dA*dT*dG*dT*dG*dG*e[5mC]*eA*kA*kT; antisense) [Compound 1198725] | 23

Same assay, conditions: Table 41; SNU-449 cells, 10,000 cells per well, free uptake, 2,000 nM modified oligonucleotide, approximately 48 hours; RTS36584; normalized to RIBOGREEN; Yap1 mRNA relative to untreated control cells

Substance | YAP1 (% UTC)
1198739 (k[5mC]*eA*k[5mC]*dT*dG*dA*dG*dG*dT*dA*dT*dA*eA*e[5mC]*kT*kG; antisense) [Compound 1198739] | 94
1198692 (antisense kT*kG*dT*dA*dA*dT*dA*dT*dT*dG*d[5mC]*dA*kA*eT*k[5mC]*eT) [Compound 1198692] | 120
1198734 (kA*eG*kG*dT*dA*dT*dA*dA*d[5mC]*dT*dG*dG*eG*e[5mC]*kA*kA; antisense) [Compound 1198734] | 29
1198787 (antisense kA*eG*kT*dG*dT*dA*dT*dG*dT*d[5mC]*dA*dG*eA*eA*kG*kA) [Compound 1198787] | 9
1198652 (kT*kT*dT*dT*dA*d[5mC]*dA*dT*dT*dA*dG*dG*kA*eA*k[5mC]*eA; antisense) [Compound 1198652] | 68

Same assay, conditions: Table 42 (separate experiment); SNU-449 cells, 10,000 cells per well, free uptake, 2,000 nM modified oligonucleotide, approximately 48 hours; RTS36584; normalized to RIBOGREEN; Yap1 mRNA relative to untreated control cells

Substance | YAP1 (% UTC)
1198231 (kT*kT*dG*dG*dA*dA*dG*dA*dT*d[5mC]*dT*eG*eA*eA*kA*k[5mC]) [Compound 1198231] | 73
1198710 (kA*k[5mC]*dT*dA*dA*dG*dT*dA*dA*dG*dG*dT*kT*eT*k[5mC]*e[5mC]; antisense) [Compound 1198710] | 51

Same assay, conditions: Table 43 experiment; SNU-449 cells, 10,000 cells per well, free uptake, 2,000 nM, approximately 48 hours; RTS36584; Yap1 mRNA normalized to RIBOGREEN, relative to untreated control cells

Substance | YAP1 (% UTC)
1198243 (kG*kA*dT*dT*dT*dA*dG*dG*dA*dT*dG*e[5mC]*eA*eT*kG*kG; antisense) [Compound 1198243] | 8

Same assay, conditions: Table 44 experiment; SNU-449 cells, 10,000 cells per well, free uptake, 2,000 nM, approximately 48 hours; RTS36584; Yap1 mRNA normalized to RIBOGREEN, relative to untreated control cells

Substance | YAP1 (% UTC)
1198518 (kT*kA*dA*dT*dA*dT*dT*dG*d[5mC]*dA*dA*eT*k[5mC]*eT*kG*eT; antisense) [Compound 1198518] | 71
1198508 (k[5mC]*kT*dT*dA*dT*dA*dT*dG*dG*dT*dT*eT*kT*eG*kT*eG; antisense) [Compound 1198508] | 22
1198511 (kA*k[5mC]*dT*d[5mC]*dT*dT*dA*dT*dA*dT*dG*eG*kT*eT*kT*eT; antisense) [Compound 1198511] | 53
1198500 (kA*kT*dT*dT*dA*dG*dG*dA*dT*dG*d[5mC]*eA*kT*eG*kG*eT; antisense) [Compound 1198500] | 17
1198509 (kT*k[5mC]*dT*dT*dA*dT*dA*dT*dG*dG*dT*eT*kT*eT*kG*eT; antisense) [Compound 1198509] | 20
1198904 (kT*kA*dT*dT*dA*dG*dA*dG*dT*dA*dT*kG*dT*kG*dG*k[5mC]; antisense) [Compound 1198904] | 12

Same assay, conditions: Table 45; Yap1 mRNA as percent of untreated control, SNU-449 cells, single dose

Substance | YAP1 (% UTC)
1198935 (kG*kA*dT*dT*dT*dA*dG*dG*dA*dT*dG*k[5mC]*dA*kT*dG*kG; antisense) [Compound 1198935] | 18
1198922 (kG*kG*dA*dA*dG*dA*dT*d[5mC]*dT*dG*dA*kA*dA*k[5mC]*dT*k[5mC]; antisense) [Compound 1198922] | 59
1095509 (antisense kT*kG*dA*dG*dG*dT*dA*dT*dA*dA*d[5mC]*kT*dG*kG*dG*k[5mC]) [Compound 1095509] | 29
1198895 (kG*kG*dA*dA*dA*dT*dT*dG*dT*d[5mC]*dT*k[5mC]*dA*kT*dG*k[5mC]; antisense) [Compound 1198895] | 22
1198962 (kT*kA*dA*dA*dG*dT*dG*dT*dA*dT*dG*kT*d[5mC]*kA*dG*kA; antisense) [Compound 1198962] | 52
1198947 (k[5mC]*kA*dA*d[5mC]*dT*d[5mC]*dT*dT*dA*dT*dA*kT*dG*kG*dT*kT; antisense) [Compound 1198947] | 88

Same assay, conditions: Table 46; Yap1 mRNA as percent of untreated control, SNU-449 cells, single dose

Substance | YAP1 (% UT)
1198881 (kT*kA*dA*dG*dG*dT*dT*dT*d[5mC]*d[5mC]*d[5mC]*kA*eG*kA*eT*kT; antisense) [Compound 1198881] | 36
1198886 (kA*k[5mC]*dT*dA*dA*dG*dT*dA*dA*dG*dG*kT*eT*kT*e[5mC]*k[5mC]; antisense) [Compound 1198886] | 45
1198845 (kA*kG*dG*dA*dT*dG*d[5mC]*dA*dT*dG*dG*kT*eT*kT*eT*kT; antisense) [Compound 1198845] | 43
1198824 (kA*kG*dG*dT*dA*dT*dA*dA*d[5mC]*dT*dG*kG*eG*k[5mC]*eA*kA; antisense) [Compound 1198824] | 72
1198833 (kA*kG*d[5mC]*dA*d[5mC]*dT*dT*dT*dT*dA*d[5mC]*kA*eT*kT*eA*kG; antisense) [Compound 1198833] | 54

Same assay, conditions: Table 48; Yap1 mRNA level relative to untreated control; modified oligonucleotides targeting SEQ ID NO.: 1 and 2

Substance | YAP1 (% UT)
1198318 (kT*kT*kT*dG*dG*dA*dA*dG*dA*dT*d[5mC]*dT*kG*eA*kA*eA; antisense) [Compound 1198318] | 120
1198343 (kA*kT*kT*dG*d[5mC]*dA*dA*dT*d[5mC]*dT*dG*dT*k[5mC]*eT*kG*eA; antisense) [Compound 1198343] | 39
1097247 (antisense kT*kA*kA*dA*dG*dT*dG*dT*dA*dT*dG*dT*d[5mC]*kA*kG*kA) [Compound 1097247] | 9

Same assay, conditions: Table 49; Yap1 mRNA level relative to untreated control; modified oligonucleotides targeting SEQ ID NO.: 1 and 2

Substance | YAP1 (% UT)
1198554 (antisense kT*kT*kA*dG*dA*dG*dT*dA*dT*dG*dT*dG*kG*k[5mC]*kA*eA) [Compound 1198554] | 16
1198546 (antisense kG*kA*kA*dA*dT*dT*dG*dT*d[5mC]*dT*d[5mC]*dA*kT*kG*k[5mC]*e[5mC]) [Compound 1198546] | 11
1198341 (k[5mC]*kA*kA*d[5mC]*dT*d[5mC]*dT*dT*dA*dT*dA*dT*kG*eG*kT*eT; antisense) [Compound 1198341] | 90
1198547 (antisense kG*kG*kA*dA*dA*dT*dT*dG*dT*d[5mC]*dT*d[5mC]*kA*kT*kG*e[5mC]) [Compound 1198547] | 27
1198364 (kT*kA*kA*dG*dT*dA*dA*dG*dG*dT*dT*dT*k[5mC]*e[5mC]*k[5mC]*eA; antisense) [Compound 1198364] | 29

Same assay, conditions: Table 50; Yap1 mRNA remaining as percent of untreated control (UT), SNU-449 cells, single dose

Substance | YAP1 (% UT)
1197236 (antisense kT*kA*kT*dT*mA*dG*dA*dG*dT*dA*dT*dG*dT*kG*kG*k[5mC]) [Compound 1197236] | 17
1198616 (antisense kT*kT*kT*dA*dA*dA*dG*dT*dG*dT*dA*dT*kG*kT*k[5mC]*eA) [Compound 1198616] | 16
1197285 (kA*kG*kA*dG*mU*dA*dT*dG*dT*dG*dG*d[5mC]*dA*kA*kT*kA; antisense) [Compound 1197285] | 28

Same assay, conditions: Table 51; Yap1 mRNA remaining as percent of untreated control (UT), SNU-449 cells, single dose

Substance | YAP1 (% UT)
1197243 (antisense kA*kA*k[5mC]*dA*mC*dT*dG*dA*dG*dG*dT*dA*dT*kA*kA*k[5mC]) [Compound 1197243] | 81
1197308 (kA*kA*kT*dA*mU*dT*dG*d[5mC]*dA*dA*dT*d[5mC]*dT*kG*kT*k[5mC]; antisense) [Compound 1197308] | 49
1197290 (kG*kA*kG*dG*mU*dA*dT*dA*dA*d[5mC]*dT*dG*dG*kG*k[5mC]*kA) [Compound 1197290] | 37

Same assay, conditions: Table 52; Yap1 mRNA, modified oligonucleotides targeting SEQ ID NO: 1 and 2

Substance | YAP1 (% UT)
1200808 (kA*k[5mC]*kT*dG*dA*mG*dG*dT*dA*dT*dA*dA*d[5mC]*kT*kG*kG; antisense) [Compound 1200808] | 45

Same assay, conditions: Yap1 mRNA, percent of untreated control; modified oligonucleotides targeting SEQ ID NO: 1 and 2; Table 47

Substance | YAP1 (% UT)
1198858 (k[5mC]*kT*d[5mC]*dT*dT*dA*dT*dA*dT*dG*dG*kT*eT*kT*eT*kG) [Compound 1198858] | 29
1074798 (kG*k[5mC]*kT*dT*dT*dG*dG*dA*dA*dG*dA*dT*d[5mC]*kT*kG*kA) [Compound 1074798] | 19
1197212 (antisense kT*kT*kT*dA*dT*dG*dT*dA*dA*dT*dA*dT*dT*kG*k[5mC]*kA) [Compound 1197212] | 55
1074463 (kT*kA*kG*dA*dG*dT*dA*dT*dG*dT*dG*dG*d[5mC]*kA*kA*kT; antisense) [Compound 1074463] | 20
1197188 (antisense kT*kT*kG*dG*dA*dA*dG*dA*dT*d[5mC]*dT*dG*dA*kA*kA*k[5mC]) [Compound 1197188] | 96
